Active and inactive are the calls of the source. The rule behind the calls is not given here. Where a SMILES comes first, the peptide text is derived from it. [ ]: non-standard residue; d: D form. The star is where a group is joined. dHyp = O=C(O)[C@H]1C[C@H](O)CN1; Cha = N[C@@H](CC1CCCCC1)C(=O)O; Aib = CC(C)(N)C(=O)O; Bz = O=C(c1ccccc1)*
Assays:
[1] = Mean residence time in C57BL/6J mouse at 1 mg/kg, iv by LC/MS/MS analysis; assay type: ADME, organism-based; conditions: in vivo
Mus musculus [2] = experiment: Antiobesity activity in obese C57BL/6J mouse assessed as body weight loss at 0.3 mg/kg/day administered via subcutaneous osmotic pumps by continuous dosing measured on day 11 relative to control; assay type: functional
[3] = Volume of distribution at steady state in C57BL/6J mouse at 1 mg/kg, iv by LC/MS/MS analysis; assay type: ADME, organism-based; conditions: in vivo, read-out: Vdss
[4] = AUC (0 to 24 hrs) in C57BL/6J mouse at 1 mg/kg, sc by LC/MS/MS analysis; assay type: ADME, organism-based; design: dose 1 mg/kg, time < 24 hr, route subcutaneous; conditions: in vivo
[5] = target: T1, Neuropeptide Y receptor type 2 (Homo sapiens, UniProt P49146); experiment: Displacement of [125I]peptide YY from human Y2 receptor expressed in CHO cell membranes after 60 mins by TopCount scintillation counting analysis
T1 sequence (P49146 whole entry): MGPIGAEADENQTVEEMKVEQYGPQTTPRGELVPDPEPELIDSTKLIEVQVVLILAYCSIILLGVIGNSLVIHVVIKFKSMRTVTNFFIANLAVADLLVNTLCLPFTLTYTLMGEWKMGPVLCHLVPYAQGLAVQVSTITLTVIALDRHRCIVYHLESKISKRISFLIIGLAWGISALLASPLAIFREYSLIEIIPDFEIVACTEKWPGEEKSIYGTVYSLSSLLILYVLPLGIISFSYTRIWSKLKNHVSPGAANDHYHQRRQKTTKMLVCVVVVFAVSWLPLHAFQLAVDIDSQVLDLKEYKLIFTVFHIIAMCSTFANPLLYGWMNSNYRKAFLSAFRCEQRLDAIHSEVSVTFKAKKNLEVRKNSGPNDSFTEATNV

Mus musculus [6] = experiment: Anorectic activity in C57BL/6J mouse assessed as inhibition of food intake at 0.3 mg/kg/day, sc administered by infusion as continuous dosing for 3 days relative to 1 mg/kg/day PYY (3 to 36 residues); assay type: functional
Mus musculus [7] = experiment: Antidiabetic activity in type 2 diabetes obese mouse assessed as reduction in plasma glucose level at 0.03 to 0.3 mg/kg/day administered via subcutaneous osmotic pumps by continuous dosing for 11 days; assay type: functional, organism-based
[8] = target: T1, Neuropeptide Y receptor type 2; experiment: Agonist activity at human Y2 receptor expressed in CHO cell membranes after 120 mins by [35S]GTPgammaS binding assay; assay type: functional
Mus musculus [9] = experiment: Anorectic activity in C57BL/6J mouse assessed as inhibition of food intake at 0.03 mg/kg/day, sc administered by infusion as continuous dosing for 3 days relative to 1 mg/kg/day PYY (3 to 36 residues); assay type: functional
Mus musculus [10] = experiment: Anorectic activity in lean C57BL/6J mouse assessed as inhibition of cumulative food intake at 3 to 300 nmol/kg through bolus subcutaneous administration measured 24 hrs post dose; assay type: functional, organism-based
[11] = Cmax in C57BL/6J mouse at 1 mg/kg, sc by LC/MS/MS analysis; assay type: ADME, organism-based; design: dose 1 mg/kg, route subcutaneous; conditions: in vivo
[12] = Total clearance in C57BL/6J mouse at 1 mg/kg, iv by LC/MS/MS analysis; assay type: ADME, organism-based; conditions: in vivo
[13] = AUC (0 to 24 hrs) in C57BL/6J mouse at 1 mg/kg, iv by LC/MS/MS analysis; assay type: ADME, organism-based; design: time < 24 hr, dose 1 mg/kg, route intravenous; conditions: in vivo
[14] = Plasma concentration in C57BL/6J mouse at 1 mg/kg, iv after 5 mins by LC/MS/MS analysis; assay type: ADME, organism-based
Mus musculus [15] = experiment: Antiobesity activity in obese C57BL/6J mouse assessed as inhibition of cumulative food intake at 0.03 to 0.3 mg/kg/day administered via subcutaneous osmotic pumps by continuous dosing for 11 days; assay type: functional, organism-based
Mus musculus [16] = experiment: Antidiabetic activity in type 2 diabetes obese mouse assessed as reduction in glycated hemoglobin level at 0.03 to 0.3 mg/kg/day administered via subcutaneous osmotic pumps by continuous dosing for 11 days; assay type: functional, organism-based
[17] = Mean residence time in C57BL/6J mouse at 1 mg/kg, sc by LC/MS/MS analysis; assay type: ADME, organism-based; conditions: in vivo
Mus musculus [18] = experiment: Mean absorption time in C57BL/6J mouse at 1 mg/kg, sc by LC/MS/MS analysis; assay type: ADME, organism-based; conditions: in vivo
[19] = Bioavailability in C57BL/6J mouse at 1 mg/kg, sc by LC/MS/MS analysis; assay type: ADME, organism-based; conditions: in vivo
Mus musculus [20] = experiment: Anorectic activity in lean C57BL/6J mouse assessed as inhibition of cumulative food intake at 3 to 300 nmol/kg through bolus subcutaneous administration measured 3 to 24 hrs post dose; assay type: functional, organism-based
[21] = Tmax in C57BL/6J mouse at 1 mg/kg, sc by LC/MS/MS analysis; assay type: ADME, organism-based; conditions: in vivo
Mus musculus [22] = experiment: Anorectic activity in C57BL/6J mouse assessed as inhibition of food intake at 0.1 mg/kg/day, sc administered by infusion as continuous dosing for 3 days relative to 1 mg/kg/day PYY (3 to 36 residues); assay type: functional
Mus musculus [23] = experiment: Anorectic activity in C57BL/6J mouse assessed as inhibition of food intake at 1 mg/kg/day, sc administered by infusion as continuous dosing for 3 days relative to 1 mg/kg/day PYY (3 to 36 residues); assay type: functional; conditions: 72 h

Compound: CC(=O)N[C@@H](CO)C(=O)N1CCC[C@@H]1C(=O)N[C@@H](CCCNC(=N)N)C(=O)N[C@@H](Cc1ccncc1)C(=O)N[C@@H](CC1CCCCC1)C(=O)NC(C)(C)C(=O)N[C@@H](CC(N)=O)C(=O)N[C@@H](CCCCN)C(=O)NC(C)(C)C(=O)N[C@H](C(=O)N[C@@H](CCCNC(=N)N)C(=O)N[C@@H](CCC(N)=O)C(=O)N[C@@H](CCCNC(=N)N)C(=O)N[C@@H](CC1CCCCC1)C(N)=O)[C@@H](C)O
- MRT [1]: 20.4 min
- Activity (Mus musculus [2]): 23%
- Vd [3]: 0.809 L/kg
- AUC(0-t) at 24 h [4]: 0.154 µM·h
- IC50 [5]: 0.92 nM
- inhibition (INH) (Mus musculus [6]): 112%
- Activity (Mus musculus [7]): Active
- EC50 [8]: 0.2 nM
- inhibition (INH) (Mus musculus [9]): 38%
- Activity (Mus musculus [10]): Active
- Cmax [11]: 283 nM
- clearance [12]: 39.9 mL/min/kg
- AUC(0-t) at 24 h [13]: 0.231 µM·h
- concentration at 5 min [14]: 1060 nM
- inhibition (Mus musculus [15]): Active
- Activity (Mus musculus [16]): Active
- MRT [17]: 26.4 min
- MAT (Mus musculus [18]): 0.1 h
- bioavailability [19]: 66.6%
- inhibition (Mus musculus [20]): Active
- Tmax [21]: 10.2 min
- inhibition (INH) (Mus musculus [22]): 80%

Compound: CC(=O)N[C@@H](CO)C(=O)N1C[C@@H](O)C[C@@H]1C(=O)N[C@@H](CCCNC(=N)N)C(=O)N[C@@H](Cc1cnc[nH]1)C(=O)N[C@@H](CC1CCCCC1)C(=O)N[C@@H](CC1CCCCC1)C(=O)N[C@@H](CC(N)=O)C(=O)N[C@@H](CC(C)C)C(=O)NC(C)(C)C(=O)N[C@H](C(=O)N[C@@H](CCCNC(=N)N)C(=O)N[C@@H](CCC(N)=O)C(=O)N[C@@H](CCCNC(=N)N)C(=O)N[C@@H](CC1CCCCC1)C(N)=O)[C@@H](C)O (Ac-S[dHyp]RH[Cha][Cha]NL[Aib]TRQR[Cha]-NH2)
- IC50 [5]: 0.7 nM
- EC50 [8]: 0.2 nM
- MAT (Mus musculus [18]): 0.14 h
- bioavailability [19]: 18.6%
- inhibition (INH) (Mus musculus [22]): 18%

Compound: CC(C)C[C@H](NC(=O)[C@H](CC(N)=O)NC(=O)[C@H](CC1CCCCC1)NC(=O)[C@H](CC1CCCCC1)NC(=O)[C@H](Cc1cnc[nH]1)NC(=O)[C@H](CCCNC(=N)N)NC(=O)c1ccccc1)C(=O)NC(C)(C)C(=O)N[C@H](C(=O)N[C@@H](CCCNC(=N)N)C(=O)N[C@@H](CCC(N)=O)C(=O)N[C@@H](CCCNC(=N)N)C(=O)N[C@@H](CC1CCCCC1)C(N)=O)[C@@H](C)O (Bz-RH[Cha][Cha]NL[Aib]TRQR[Cha]-NH2)
- IC50 [5]: 7.4 nM
- EC50 [8]: 2 nM
- MAT (Mus musculus [18]): 2.72 h
- bioavailability [19]: 5.9%

Compound: CC(=O)N[C@@H](CO)C(=O)N1CCC[C@@H]1C(=O)N[C@@H](CCCNC(=N)N)C(=O)N[C@@H](Cc1cnc[nH]1)C(=O)N[C@@H](CC1CCCCC1)C(=O)N[C@@H](CC1CCCCC1)C(=O)N[C@@H](CC(N)=O)C(=O)N[C@@H](CCCN)C(=O)NC(C)(C)C(=O)N[C@H](C(=O)N[C@@H](CCCNC(=N)N)C(=O)N[C@@H](CCC(N)=O)C(=O)N[C@@H](CCCNC(=N)N)C(=O)N[C@@H](CC1CCCCC1)C(N)=O)[C@@H](C)O
- IC50 [5]: 1.2 nM
- inhibition in vivo at 1 mg/kg/day (Mus musculus [23]): 22%
- EC50 [8]: 0.068 nM

Compound: CC(=O)N[C@@H](CO)C(=O)N1CCC[C@@H]1C(=O)N[C@@H](CCCNC(=N)N)C(=O)N[C@@H](Cc1cnc[nH]1)C(=O)N[C@@H](CC1CCCCC1)C(=O)NC(C)(C)C(=O)N[C@@H](CC(N)=O)C(=O)N[C@@H](CC(C)C)C(=O)NC(C)(C)C(=O)N[C@H](C(=O)N[C@@H](CCCNC(=N)N)C(=O)N[C@@H](CCC(N)=O)C(=O)N[C@@H](CCCNC(=N)N)C(=O)N[C@@H](CC1CCCCC1)C(N)=O)[C@@H](C)O
- IC50 [5]: 1.4 nM
- inhibition in vivo at 1 mg/kg/day (Mus musculus [23]): 59%
- EC50 [8]: 0.66 nM

Compound: CC(=O)N[C@@H](CO)C(=O)N1CCC[C@@H]1C(=O)N[C@@H](CCCNC(=N)N)C(=O)N[C@@H](Cc1cnc[nH]1)C(=O)N[C@@H](CC1CCCCC1)C(=O)N[C@@](C)(CC(C)C)C(=O)N[C@@H](CC(N)=O)C(=O)N[C@@H](CC(C)C)C(=O)NC(C)(C)C(=O)N[C@H](C(=O)N[C@@H](CCCNC(=N)N)C(=O)N[C@@H](CCC(N)=O)C(=O)N[C@@H](CCCNC(=N)N)C(=O)N[C@@H](CC1CCCCC1)C(N)=O)[C@@H](C)O
- IC50 [5]: 0.94 nM
- inhibition in vivo at 1 mg/kg/day (Mus musculus [23]): 59%
- EC50 [8]: 0.41 nM

Compound: CC(=O)N[C@@H](CO)C(=O)N1CCC[C@@H]1C(=O)N[C@@H](CCCNC(=N)N)C(=O)N[C@@H](Cc1cnc[nH]1)C(=O)N[C@@H](CC1CCCCC1)C(=O)N[C@@H](CC1CCCCC1)C(=O)N[C@@H](CC(N)=O)C(=O)N[C@@H](CCCCN)C(=O)NC(C)(C)C(=O)N[C@H](C(=O)N[C@@H](CCCNC(=N)N)C(=O)N[C@@H](CCC(N)=O)C(=O)N[C@@H](CCCNC(=N)N)C(=O)N[C@@H](CC1CCCCC1)C(N)=O)[C@@H](C)O
- IC50 [5]: 0.55 nM
- inhibition in vivo at 1 mg/kg/day (Mus musculus [23]): 79%
- EC50 [8]: 0.2 nM

Compound: CC(=O)N[C@@H](CO)C(=O)N1CCC[C@@H]1C(=O)N[C@@H](CCCNC(=N)N)C(=O)N[C@@H](CO)C(=O)N[C@@H](CC1CCCCC1)C(=O)N[C@@H](CC1CCCCC1)C(=O)N[C@@H](CC(N)=O)C(=O)N[C@@H](CC(C)C)C(=O)NC(C)(C)C(=O)N[C@H](C(=O)N[C@@H](CCCNC(=N)N)C(=O)N[C@@H](CCC(N)=O)C(=O)N[C@@H](CCCNC(=N)N)C(=O)N[C@@H](CC1CCCCC1)C(N)=O)[C@@H](C)O
- IC50 [5]: 0.97 nM
- inhibition in vivo at 1 mg/kg/day (Mus musculus [23]): 54%
- EC50 [8]: 0.33 nM
